Results reported in article PMC8101546 (Biochimica et biophysica acta. Molecular cell research, 2018).

Key:
[1] = system: 23 kDa protein; format: binding, human; conditions: U2OS cell extracts; for IC50: read-out: IC50 for displacement of photolabeling of the 23 kDa protein, [32P]-5N3-8-ethynyl-NAADP (0.23 nM) photoprobe, densitometry
[2] = system: 35 kDa protein; format: binding, human; conditions: U2OS cell extracts; for IC50: read-out: IC50 for displacement of photolabeling of the 35 kDa band, [32P]-5N3-8-ethynyl-NAADP (0.23 nM) photoprobe, densitometry
[3] = system: U2OS cells; experiment: Ca2+ mobilization after microinjection into U2OS cells expressing GCaMP6M; format: cell-based, human; conditions: GCaMP6M fluorescence
[4] = target: NAADP receptor; experiment: Self-desensitization to subsequent 1 μM NAADP in sea urchin egg homogenate; format: biochemical, Strongylocentrotus purpuratus; conditions: read-out: IC50 for desensitization to NAADP-evoked Ca2+ release, subsequent addition of 1 μM NAADP, n = 3, ± STDEV
[5] = target: NAADP receptor; experiment: Ca2+ release assay in sea urchin egg homogenate; format: biochemical, Strongylocentrotus purpuratus; conditions: read-out: Ca2+ mobilizing EC50, fluo-3, n = 3, ± STDEV

| displacement of 23 kDa photolabeling, more penetrant compared to NADP ([1]; ratio of IC50 values NADP/NAADP) | EC50 [5] | Compound | IC50 [1] | lower affinity of the 35 kDa band in contrast to the 23 kDa band ([2]; ratio of IC50 values 35 kDa/23 kDa) | IC50 [2] | peak F/F0 (Ca2+ response) ([3]; 100 nM in pipette, n = 3 injections) | IC50 [4] | peak F/F0 (Ca2+ response) ([3]; 1 μM in pipette, n = 3) | peak F/F0 (Ca2+ response) ([3]; 10 μM in pipette, n = 3) |
| --- | --- | --- | --- | --- | --- | --- | --- | --- | --- |
| ~ 9 fold | – | Nc1ncnc2c1ncn2[C@@H]1O[C@H](COP(=O)(O)OP(=O)(O)OCC2OC([n+]3cccc(C(=O)[O-])c3)C(O)C2O)[C@@H](O)[C@H]1OP(=O)(O)O (stereo in doubt) [NAADP, nicotinic acid adenine dinucleotide 2′-phosphate] | 27 ± 1.3 nM | ~ 8 fold | 213 ± 19 nM | 4.01 ± 1.2 | – | – | – |
| – | 2860 ± 400 nM | C#Cc1nc2c(N)ncnc2n1C1OC(COP(=O)(O)OP(=O)(O)OC[C@H]2O[C@@H]([n+]3cc(N=[N+]=[N-])cc(C(=O)[O-])c3)[C@H](O)[C@@H]2O)C(O)C1OP(=O)(O)O (some centres unmarked) [5N3-8-ethynyl-NAADP, 5-Azido-8-ethynyl-NAADP] | – | – | – | – | 99 ± 7.7 nM | 2.14 ± 0.37 | 2.8 ± 0.33 |
| – | – | NC(=O)c1ccc[n+]([C@@H]2O[C@H](COP(=O)([O-])OP(=O)(O)OC[C@H]3O[C@@H](n4cnc5c(N)ncnc54)[C@H](OP(=O)(O)O)[C@@H]3O)[C@@H](O)[C@H]2O)c1 [NADP, nicotinamide adenine dinucleotide 2′-phosphate] | 246 ± 13 nM | – | 940 ± 204 nM | – | – | – | – |
